From patent publication US8193430B2, “Methods for separating carbon nanotubes” (The University of Connecticut, priority 2008, dated 2012)
Converted amounts (≈) assume the structure as drawn. Read-outs that look alike come from different tables or passages of the source. One block for each molecule: values may come before it.

Columns and labels:
[1] = Solubility of lumiflavin and FC12 in various solvents; type: physicochemical; conditions: organic solvent or mixture
From the text: The facile nanotube individualization and high QYs afforded by FC12 in certain solvents, begs the question why these solvents behave so differently. The answer to this question is believed to originate from the relative solubility differences of the two FC12 sub-moieties (i.e., isoalloxazine ring and dodecyl side chain). For this, we procured 10-methyl isoalloxazine (lumiflavin), the closest analogue to the isoalloxazine ring, and investigated its solubility characteristics versus that of FC12. Table 1 tabulates the solubilities of lumiflavin and FC12 as a function of dielectric constant (∈) of various solvents. […] As solvent polarity increases (i.e., ethylacetate, THF and acetone), their solubilities increase accordingly. […] Such behavior is believed to originate from the moderate-strong H-bonding ability of pyridine and DMF, capable of dissociating the H-bonded FC12 ribbon responsible for nanotube-dispersion. […] Two distinct regimes can be discerned, with high and low QYs for low and medium polarity solvents, respectively. For both regimes, the increase in FC12 solubility was followed by a decrease in QY. Since H-bonding is responsible for both helix stability and FC12/lumiflavine dissolution, increasing solvent polarity is expected to increase the helix dissociation constant and render FC12-wrapped nanotubes more prone to bundling and less capable to desorb 1,4-endoperoxide defects. On the basis of the observed aggregation tendencies, the low QYs in regime B appear to be dominated by nanotube bundling. In low-polarity solvents, the tight helical wrapping prevents nanotube bundling, which results in higher QY. Moreover, the proportionality of the helix dissociation constant to the FC12 solubility, explains the linear dependence of 1,4-endoperoxide defect removal along the one dimensional SWNT structure.

[2] = Solubility of riboflavin in neutral aqueous media (SWNT dispersion); type: physicochemical
Method: A representative procedure for dispersing SWNTs with flavin mononucleotide (FMN), FAD and riboflavin involves a 4 hours cup horn sonication of SWNTs in H2O or D2O. This is followed by 2 hours of centrifugation at 15 kg, where the upper 70 to 80% of the supernatant was decanted for further investigation. As noted above, the FIG. 1 illustrates the chemical structure of riboflavin, FMN, and FAD used for such aqueous dispersion of SWNTs. While the basic flavin moiety is hydrophobic, these flavin derivatives have water-miscible tail groups. Such amphiphilic structures together with the aforementioned strong π-π interactions with both metallic and semiconducting SWNTs, can explain the effective nanotube dispersion in aqueous media.
FIG. 6 illustrates the UV-Vis-NIR spectra of HiPco dispersions with FMN, FAD, and riboflavin. The first (E11^S) and second (E22^S) optical transitions of semiconducting SWNTs can be witnessed in […] range, respectively. Those E11^S and E22^S features are clearly apparent for the FMN and FAD spectra, which are in good accordance with that of SDBS-dispersed HiPco SWNTs. […] Upon sonication of riboflavin-SWNT in basic media (pH 11), the resulting dispersions recover the aforementioned E11^S and E22^S features (data not shown), which indicates the successful dispersion of SWNTs. […]

solubility ([1]; DMF (N,N-dimethyl formamide), in DMF, read-out: FC12 solubility): 22900 µg/mL (≈ 55700 µM)
solubility ([1]; THF (tetrahydrofuran), in THF, read-out: FC12 solubility): 11000 µg/mL (≈ 26900 µM)
solubility ([1]; in acetone, read-out: FC12 solubility): 1810 µg/mL (≈ 4410 µM)
solubility ([1]; in benzene, read-out: FC12 solubility): 310 µg/mL (≈ 755 µM)
solubility ([1]; in ethylacetate, read-out: FC12 solubility): 510 µg/mL (≈ 1240 µM)
solubility ([1]; in o-xylene, read-out: FC12 solubility): 250 µg/mL (≈ 609 µM)
solubility ([1]; in pyridine, read-out: FC12 solubility): 70400 µg/mL (≈ 171000 µM)
solubility ([1]; in toluene, read-out: FC12 solubility): 230 µg/mL (≈ 560 µM)
Structure (SMILES): CCCCCCCCCCCCn1c2nc(=O)[nH]c(=O)c-2nc2cc(C)c(C)cc21 [FC12, 10-dodecyl-7,8-dimethyl-10H-benzo[g]pteridine-2,4-dione]

solubility ([1]; DMF (N,N-dimethyl formamide), in DMF, read-out: Lumiflavin solubility): 317 µg/mL (≈ 1240 µM)
solubility ([1]; THF (tetrahydrofuran), in THF, read-out: Lumiflavin solubility): 46.2 µg/mL (≈ 180 µM)
solubility ([1]; in acetone, read-out: Lumiflavin solubility): 53.9 µg/mL (≈ 210 µM)
solubility ([1]; in benzene, read-out: Lumiflavin solubility): 4.4 µg/mL (≈ 17.2 µM)
solubility ([1]; in ethylacetate, read-out: Lumiflavin solubility): 14.1 µg/mL (≈ 55 µM)
solubility ([1]; in o-xylene, read-out: Lumiflavin solubility): 5.9 µg/mL (≈ 23 µM)
solubility ([1]; in pyridine, read-out: Lumiflavin solubility): 529 µg/mL (≈ 2060 µM)
solubility ([1]; in toluene, read-out: Lumiflavin solubility): 4.3 µg/mL (≈ 16.8 µM)
Structure (SMILES): Cc1cc2nc3c(=O)[nH]c(=O)nc-3n(C)c2cc1C [Lumiflavin]

solubility in neutral aqueous media [2]: insolubility
Structure (SMILES): Cc1cc2nc3c(=O)[nH]c(=O)nc-3n(C[C@H](O)[C@H](O)[C@H](O)CO)c2cc1C [riboflavin]
